Paper PMC3883290, “Functional characterization in Xenopus oocytes of Na^+ transport systems from durum wheat reveals diversity among two HKT1;4 transporters” (Journal of Experimental Botany, 2013)

Target: T1, TdHKT1;4-2 (Triticum turgidum, UniProt U5YMY4)
T1 construct: full-length coding region (ORF 1686 bp, 562 residues as printed) in pGEMXho, cRNA expressed in Xenopus laevis oocytes
T1 sequence (U5YMY4 1-561): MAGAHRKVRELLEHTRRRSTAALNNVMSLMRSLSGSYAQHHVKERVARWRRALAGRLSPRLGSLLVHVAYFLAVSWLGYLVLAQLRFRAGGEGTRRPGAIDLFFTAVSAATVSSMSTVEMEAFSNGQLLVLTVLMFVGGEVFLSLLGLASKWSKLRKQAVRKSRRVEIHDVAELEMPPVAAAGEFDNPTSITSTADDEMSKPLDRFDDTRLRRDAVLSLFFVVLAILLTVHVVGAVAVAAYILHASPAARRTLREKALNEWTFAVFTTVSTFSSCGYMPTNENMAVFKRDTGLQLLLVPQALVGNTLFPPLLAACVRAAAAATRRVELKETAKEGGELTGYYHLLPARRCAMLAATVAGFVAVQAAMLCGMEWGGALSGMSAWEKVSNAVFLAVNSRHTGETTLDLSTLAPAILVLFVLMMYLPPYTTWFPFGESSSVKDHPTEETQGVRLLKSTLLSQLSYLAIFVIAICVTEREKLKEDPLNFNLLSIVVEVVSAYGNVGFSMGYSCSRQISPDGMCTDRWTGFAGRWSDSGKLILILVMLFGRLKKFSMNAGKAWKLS
Test: two-electrode voltage clamp, Xenopus oocytes
Format: cell-based
Settings: 500 µM quinine; 1 mM external Na+ (glutamate salt); pH 5.5; inward and outward currents

C=C[C@H]1CN2CC[C@H]1C[C@H]2[C@H](O)c1ccnc2ccc(OC)cc12 [quinine]
% decrease of currents at 500 μM: ~ 25%
